Experimental findings from paper PMC12080387, “Integrated thermal proteome and thermal proximity co-aggregation profiling identifies ATP6V1C1 as a novel anti-cancer drug target” (International Journal of Biological Sciences, 2025) are described below.

As a reminder, the Kd is the concentration at which binding is half-saturated.

The assay has as its target T1, ATP6V1C1 (Homo sapiens, UniProt P21283).
T1 construct: human wild-type ATP6V1C1, N-terminal 6xHis tag, modified pET30a, expressed in E. coli BL21 (DE3)
In words: ITC with purified recombinant protein; supported by CETSA/ITDRF (half-maximal destabilization […]) and TPP. Type of assay: binding.

T1 sequence (P21283 2-382): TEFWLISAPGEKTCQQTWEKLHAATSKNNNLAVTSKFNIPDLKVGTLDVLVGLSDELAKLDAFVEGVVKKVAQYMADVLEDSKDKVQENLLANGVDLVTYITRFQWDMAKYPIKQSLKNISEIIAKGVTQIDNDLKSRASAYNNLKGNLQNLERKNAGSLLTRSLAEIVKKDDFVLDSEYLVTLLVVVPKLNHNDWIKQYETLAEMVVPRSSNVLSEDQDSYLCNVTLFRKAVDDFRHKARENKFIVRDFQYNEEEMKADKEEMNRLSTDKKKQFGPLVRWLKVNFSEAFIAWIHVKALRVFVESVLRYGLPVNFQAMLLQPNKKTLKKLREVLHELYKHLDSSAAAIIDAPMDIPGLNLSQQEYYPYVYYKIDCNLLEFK

Consider `Cc1c([C@H](C)[C@@H]2NC[C@@H](C)C[C@H]2O)ccc2c1C[C@H]1[C@H]2CC=C2C[C@@H](O)CC[C@@]21C` [VAM, veratramine], for which the Kd turned out to be 1170 nM.
